PMC4937426, “Dcsbis (PA2771) from Pseudomonas aeruginosa is a highly active diguanylate cyclase with unique activity regulation” (Scientific Reports, 2016)

How the values were obtained:
[1] = system: Nc1nc2c(ncn2[C@@H]2O[C@H](COP(=O)(O)OP(=O)(O)OP(=O)(O)O)[C@@H](O)[C@H]2O)c(=O)[nH]1; assay: purified protein; details: without c-di-GMP; 128-512 μM GTP
[2] = molecular target: T1, Dcsbis-GGDEF; Dcsbis (173-341) (Pseudomonas aeruginosa, UniProt Q9I072); assay: coupled spectrophotometric pyrophosphate assay; format: biochemical; details: turnover only (residual activity)
T1 construct: gene PA2771

[3] = molecular target: WspR (Pseudomonas aeruginosa, UniProt Q9HXT9); assay: coupled spectrophotometric pyrophosphate assay; format: biochemical; details: turnover only, same molar concentration as Dcsbis
[4] = molecular target: T2, Dcsbis (PA2771), full-length (Pseudomonas aeruginosa, UniProt Q9I072); assay: coupled spectrophotometric pyrophosphate assay, Lineweaver-Burk with […] c-di-GMP; format: biochemical; details: GTP substrate; product inhibition, mainly competitive; Ki not given
T2 construct: homodimer

[5] = molecular target: T1, Dcsbis-GGDEF; Dcsbis (173-341); assay: X-ray crystal structure, […] Å; format: binding; details: I-site; two mutually intercalated c-di-GMP molecules bridging a GGDEF dimer; Arg251, Asp254, Arg271, Arg282

T1 sequence (Q9I072 entry or part of it): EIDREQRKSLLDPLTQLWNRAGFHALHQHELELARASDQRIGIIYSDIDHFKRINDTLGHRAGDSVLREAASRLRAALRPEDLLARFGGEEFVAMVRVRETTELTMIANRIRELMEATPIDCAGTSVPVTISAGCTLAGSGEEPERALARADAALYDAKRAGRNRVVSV
T2 sequence (Q9I072 entry or part of it): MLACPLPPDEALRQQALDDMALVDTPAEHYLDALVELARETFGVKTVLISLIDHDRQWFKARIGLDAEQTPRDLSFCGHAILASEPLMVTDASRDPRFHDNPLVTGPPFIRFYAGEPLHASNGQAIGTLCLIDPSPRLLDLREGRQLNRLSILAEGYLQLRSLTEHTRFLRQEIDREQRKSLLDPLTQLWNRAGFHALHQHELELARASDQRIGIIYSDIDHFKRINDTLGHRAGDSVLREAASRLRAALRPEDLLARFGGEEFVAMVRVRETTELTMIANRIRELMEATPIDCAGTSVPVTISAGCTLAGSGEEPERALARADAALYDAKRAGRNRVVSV
Chain of WspR (Q9HXT9 entry or part of it): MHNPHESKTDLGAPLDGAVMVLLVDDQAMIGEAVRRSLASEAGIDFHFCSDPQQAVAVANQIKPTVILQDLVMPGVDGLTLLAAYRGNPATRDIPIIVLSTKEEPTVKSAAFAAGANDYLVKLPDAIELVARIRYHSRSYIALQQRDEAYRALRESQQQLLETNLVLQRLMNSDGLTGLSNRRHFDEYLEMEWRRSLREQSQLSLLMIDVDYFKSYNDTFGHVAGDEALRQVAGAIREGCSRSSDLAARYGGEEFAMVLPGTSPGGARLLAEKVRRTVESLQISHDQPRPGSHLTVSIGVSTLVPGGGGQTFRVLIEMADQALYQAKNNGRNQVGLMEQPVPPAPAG

Dcsbis (PA2771), full-length (Pseudomonas aeruginosa PAO1)
Km [1]: 88 µM

Nc1nc2c(ncn2[C@@H]2O[C@H](COP(=O)(O)OP(=O)(O)OP(=O)(O)O)[C@@H](O)[C@H]2O)c(=O)[nH]1 [GTP]
coupled spectrophotometric pyrophosphate assay [2]: the GGDEF domain of Dcsbis, compared with the full-length Dcsbis, exhibited only residual DGC activity
coupled spectrophotometric pyrophosphate assay [3]: DGC activity assays were performed for the three proteins at the same molar concentration

Nc1nc2c(ncn2[C@@H]2O[C@@H]3COP(=O)(O)O[C@H]4[C@@H](O)[C@H](n5cnc6c(=O)[nH]c(N)nc65)O[C@@H]4COP(=O)(O)O[C@H]3[C@H]2O)c(=O)[nH]1 [c-di-GMP]
coupled spectrophotometric pyrophosphate assay, Lineweaver-Burk with 50 μM c-di- [4]: The greatly increased Km suggests that c-di-GMP mainly binds to the active site
X-ray crystal structure, 2.5 Å [5]: This extra density may be explained by building in two mutually intercalated c-di-GMP molecules
